Values after ≈ are worked out from the molar mass of the structure shown. Where two headings read alike, the source gives them in different places.
How the values were obtained:
[1] = target: T1, S. aureus RNase P (RnpA + rnpB) (Staphylococcus aureus, UniProt P0A0H5); experiment: RnpA-dependent RNase P in vitro ptRNA^Tyr processing assay; assay type: biochemical
T1 construct: hexahistidine (His6) (N); made in house; host or cells: E. coli BL21 (DE3), plasmid pEXP5-nt
T1 sequence (P0A0H5 1-117): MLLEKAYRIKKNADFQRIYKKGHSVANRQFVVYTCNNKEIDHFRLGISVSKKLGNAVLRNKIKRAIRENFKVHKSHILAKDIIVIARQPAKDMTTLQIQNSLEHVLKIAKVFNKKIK
Description: S. aureus RNase P activity assays were performed according to conditions described previously. Briefly, ptRNA^Tyr and rnpB RNA species were first denatured by heating to 95 °C for 5 min then slow cooled to room temperature. RNase P was reconstituted by mixing an equal molar ratio of rnpB and RnpA for 15 min at 37 °C. Precursor tRNA processing inhibition reactions were performed by mixing 1.25 pmol of reconstituted RNase P (RnpA + rnpB) with an equal volume of 2× low salt buffer (50 mM Tris-HCl pH 8.0, 5 mM MgCl2) in the presence of DMSO (negative control) or the indicated compound (≤500 µM) and incubated for 5 min at 37 °C. 5 pmol ptRNA^Tyr was added and the mixture was incubated at 37 °C 15 min. Reactions were stopped by adding 2× RNA loading dye and heating at 65 °C for 10 min. Each sample was electrophoresed in a 7 M urea/8% polyacrylamide gel then stained with ethidium bromide. The Biorad EZ Gel Doc imaging system was used to visualize the RNA and relative abundance of the mature tRNA^Tyr band (% processing) in the negative control or in samples containing the indicated compounds and analyzed using Biorad Image Lab densitometry software. The inhibitory activity of the indicated compounds were calculated as a % inhibition using the following equation: […].
To assess IC50, % RNase P processing inhibition was plotted against compound concentration and a linear best fit equation was generated to calculate the IC50.

S. aureus RnpA = target: T2, S. aureus RnpA (Staphylococcus aureus, UniProt P0A0H5); experiment: RnpA-mediated in vitro spa mRNA degradation assay; assay type: biochemical
T2 construct: hexahistidine (His6) (N); made in house; host or cells: E. coli BL21 (DE3), plasmid pEXP5-nt
T2 sequence (P0A0H5 1-117): T1 sequence (P0A0H5 1-117)
Description: RnpA-mediated RNA degradation assays were performed as previously described. Briefly, 1 pmol of spa mRNA was incubated with 5 pmol RnpA at 37 °C for 30 min in reaction buffer (50 mM Tris-HCl pH 8.0, 2 mM NaCl, 2 mM MgCl2) in the absence or presence of the indicated compound (≤500 µM). The inhibitory effects of the test compounds were calculated using Biorad ImageLab densitometry software to measure the signal intensity of the spa band in the negative control (spa alone), positive control (RnpA + spa + DMSO), and experimental samples (RnpA + spa + test compound) separated on a 1.2% formaldehyde-agarose gel. Background signal from the positive control sample sometimes resulted due to incomplete degradation of transcripts. Thus, the signal intensity of the positive control was taken into account when calculating the percent inhibition. The raw signals from the positive (+RnpA) and negative (-RnpA) controls were converted into percentage, by normalizing the positive control (+RnpA) signal to 0% RnpA inhibition and the negative control (-RnpA) to 100% RnpA inhibition. Similarly, the raw signals from the test compounds were reported as percent RnpA inhibition using the following equation: [(experimental−positive control)/(negative control−positive control)] × 100. […] To assess IC50, % RnpA degradation inhibition was plotted against compound concentration; a linear best fit equation was generated and utilized to calculate the IC50.

S. aureus UAMS-1 = experiment: Minimum inhibitory concentration (MIC) testing; assay type: cell-based, Staphylococcus aureus
Description: Minimum inhibitory concentration (MIC) testing was performed using to Clinical & Laboratory Standards Institute (CLSI) guidelines. Accordingly, individual wells of a 96-well microtiter plate were inoculated with 10^4 colony forming units (CFU) of S. aureus UAMS-1 containing two-fold increasing concentrations (0 to 256 μg·mL^−1) of the indicated antibiotic or putative RnpA inhibitor compound, and incubated at 37 °C for 16 h in MHB. The MIC was defined as the lowest concentration of compound in which there was no visible bacterial growth in the well.

HepG2 cells = experiment: MTT human cell cytotoxicity testing; assay type: cell-based; details: 4× MIC exposure for 24 h; for MTT = % HepG2 cell survival: SAR figures; for % HepG2 Cell Survival: MTT
Description: Human HepG2 hepatocytes were seeded in individual wells of a 96-well cell-culture treated microtiter plate at a concentration of 1 × 10^5 cells per well and incubated in Dulbecco’s Modified Eagle Medium (DMEM) supplemented with 10% fetal bovine serum at 37 °C with 5% carbon dioxide overnight. Cells were then treated with DMSO (negative control) or the indicated agent for 24 h. MTT Cell Proliferation Assay Kits were used to assess viability according to the manufacturer’s recommendations (American Type Culture Collection; Manassas, VA, USA).

[2] = SAR figures, in vitro ptRNA^Tyr processing, read-out: pIC50 = processing IC50 (converted)
[3] = SAR figures, read-out: dIC50 = degradation IC50
[4] = Staphylococcus aureus, UAMS1, 16 h, S. aureus UAMS-1, 16 h in MHB, read-out: MIC
[5] = Staphylococcus aureus, UAMS1, SAR figures, S. aureus UAMS-1, read-out: MIC
[6] = in vitro ptRNA^Tyr processing, read-out: Processing IC50
[7] = Table S1, mupirocin synergy screening initial hits, read-out: processing IC50
[8] = Table S1, mupirocin synergy screening initial hits

SMILES | IC50 [1, 2] | IC50 (S. aureus RnpA; [3]) | MIC (S. aureus UAMS-1; [4]) | MIC (S. aureus UAMS-1; [5]) | MTT = % HepG2 cell survival (HepG2 cells) | IC50 (S. aureus RnpA; read-out: Degradation IC50) | IC50 [1, 6] | other results
CC1CCN(C(=O)Nc2cccc(Cl)c2)CC1 [JC1b] | > 500 µM | > 500 µM | > 256 µg/mL | > 256 µg/mL | – | – | – | –
CC1CCCCN1C(=O)Nc1ccccc1 (centres unmarked) [JC2b] | > 500 µM | > 500 µM | > 256 µg/mL | > 256 µg/mL | – | – | – | –
Cc1ccc(NC(=O)N2CCCCC2C)cc1Cl (centres unmarked) [JC2c] | > 500 µM | > 500 µM | > 256 µg/mL | > 256 µg/mL | – | – | – | –
CCC1CCCCN1C(=O)Nc1ccccc1 (centres unmarked) [JC3c] | > 500 µM | > 500 µM | > 256 µg/mL | > 256 µg/mL | – | – | – | –
CCC1CCCCN1C(=O)Nc1ccc(Br)cc1 (centres unmarked) [JC3e] | > 500 µM | > 500 µM | > 256 µg/mL | > 256 µg/mL | – | – | – | –
CCC1CCCCN1C(=O)Nc1cccc(C)c1 (centres unmarked) [JC3f] | > 500 µM | > 500 µM | > 256 µg/mL | > 256 µg/mL | – | – | – | –
O=C(Nc1cc(Cl)cc(Cl)c1)N1CCCCC1 [JC4] | 300 µM | – | 256 µg/mL (≈ 937 µM) | 256 µg/mL (≈ 937 µM) | 71.4% | > 500 µM | – | –
O=C(Nc1cc(Cl)cc(Cl)c1)N1CCCCCC1 [JC5] | – | – | 128 µg/mL (≈ 446 µM) | 128 µg/mL (≈ 446 µM) | 65.3% | 200 µM | 225 µM | –
O=C(Nc1cccc(Cl)c1)N1CCCCCC1 [JC5b] | > 500 µM | > 500 µM | > 256 µg/mL | > 256 µg/mL | – | – | – | –
O=C(Nc1ccc(Cl)cc1)N1CCCCCC1 [JC5c] | > 500 µM | > 500 µM | > 256 µg/mL | > 256 µg/mL | – | – | – | –
CN1CCN(C(=O)Nc2cc(Cl)cc(Cl)c2)CC1 [JC6] | > 500 µM | > 500 µM | 8 µg/mL (≈ 27.8 µM) | 8 µg/mL (≈ 27.8 µM) | 61.6% | ≥ 450 µM | ≥ 450 µM | –
CCN1CCN(C(=O)Nc2cc(Cl)cc(Cl)c2)CC1 [JC7] | > 500 µM | > 500 µM | 8 µg/mL (≈ 26.5 µM) | 8 µg/mL (≈ 26.5 µM) | 75.7% | ≥ 450 µM | ≥ 450 µM | –
CCCN1CCN(C(=O)Nc2cc(Cl)cc(Cl)c2)CC1 [JC8] | > 500 µM | 450 µM | 1 µg/mL (≈ 3.16 µM) | 1 µg/mL (≈ 3.16 µM) | 109% | ≥ 450 µM | ≥ 450 µM | % HepG2 Cell Survival (HepG2 cells): 109.2%
CC1CN(C(=O)Nc2cc(Cl)cc(Cl)c2)CC(C)O1 (centres unmarked) [JC9] | – | – | – | 32 µg/mL (≈ 106 µM) | 82.5% | > 500 µM | > 500 µM | –
O=C(Nc1ccc(Cl)cc1)c1c(NC(=O)C(F)(F)F)sc2c1CCCCC2 [JR1] | – | – | 0.25 to 1 µg/mL (≈ 0.6 to 2.4 µM) | 0.5 µg/mL (≈ 1.2 µM) | 80.6% | 62.5 µM | 12 µM | % HepG2 Cell Survival (HepG2 cells; listed as ST016037): 81%; MIC (S. aureus UAMS-1; S. aureus UAMS-1, 16 h in MHB, listed as ST016037): 0.5 µg/mL (≈ 1.2 µM); MIC (S. aureus UAMS-1; Staphylococcus aureus, UAMS1, 16 h, Table S1, mupirocin synergy screening initial hits, read-out: MIC): 0.5 µg/mL
CC(=O)Nc1sc2c(c1C(=O)Nc1ccc(Cl)cc1)CCCCC2 [JR1b] | – | – | > 256 µg/mL | > 256 µg/mL | 84.9% | > 250 µM | 115 µM | –
Nc1sc2c(c1C(=O)Nc1ccc(Cl)cc1)CCCCC2 [JR1c] | – | – | 64 µg/mL (≈ 199 µM) | 64 µg/mL (≈ 199 µM) | 54.5% | 175 µM | 25 µM | –
O=C(Nc1ccccc1Cl)c1c(NC(=O)C(F)(F)F)sc2c1CCCCC2 [JR2] | 2 µM | 100 µM | 0.25 to 1 µg/mL (≈ 0.6 to 2.4 µM) | 0.5 µg/mL (≈ 1.2 µM) | 85.3% | – | – | –
O=C(Nc1ccccc1Cl)c1c(NC(=O)C(F)(F)F)sc2c1CCCC2 [JR2b] | – | 62 µM | > 256 µg/mL | > 256 µg/mL | 59.5% | – | 100 µM | –
O=C(Nc1cccc(Cl)c1)c1c(NC(=O)C(F)(F)F)sc2c1CCCCC2 [JR3] | 7 µM | 25 µM | 0.25 to 1 µg/mL (≈ 0.6 to 2.4 µM) | 0.25 µg/mL (≈ 0.6 µM) | 90.4% | – | – | –
O=C(Nc1cccc(Cl)c1)c1c(NC(=O)C(F)(F)F)sc2c1CCCC2 [JR3b] | 6 µM | 35 µM | – | 0.5 µg/mL (≈ 1.24 µM) | 103.7% | – | – | –
O=C(Nc1ccccc1)c1c(NC(=O)C(F)(F)F)sc2c1CCCCC2 [JR4] | 10 µM | 63 µM | – | – | – | – | – | –
Cc1ccc(NC(=O)c2c(NC(=O)C(F)(F)F)sc3c2CCCCC3)cc1 [JR5] | 80 µM | 115 µM | 0.25 to 1 µg/mL (≈ 0.631 to 2.52 µM) | 0.25 µg/mL (≈ 0.631 µM) | 82.8% | – | – | –
O=S(=O)(Nc1cccc2cccnc12)c1ccccc1 [compound 5175130] | – | – | – | – | – | – | – | IC50 [1, 7]: > 500 µM; MIC (S. aureus UAMS-1; [8]): 14.22 µg/mL
c1ccc(Nc2nc(-c3ccccn3)cs2)nc1 [compound 5625000] | – | – | – | – | – | – | – | IC50 [1, 7]: > 500 µM; MIC (S. aureus UAMS-1; [8]): 1.59 µg/mL
Cc1cccc(/C=C/c2ccc3cccc(O)c3n2)c1O [compound 6634438] | – | – | – | – | – | – | – | IC50 [1, 7]: < 62.5 µM; MIC (S. aureus UAMS-1; [8]): 10.40 µg/mL
C/C(=C\C(=O)OCCCCCCCCC(=O)O)C[C@@H]1OC[C@H](C[C@@H]2O[C@H]2[C@@H](C)[C@H](C)O)[C@@H](O)[C@H]1O [mupirocin, reference compound] | – | – | 0.125 µg/mL (≈ 0.25 µM) | – | – | – | – | –

Source: article PMC6627331, “Identification of Small Molecule Inhibitors of Staphylococcus aureus RnpA” (Antibiotics, 2019)
